Reference: patent US7560468B2, “Substituted 1,4,8-triazaspiro[4,5]decan-2-one compounds” (Gruenenthal GmbH, priority 2004, dated 2009)

Assays:
[1] = system: batrachotoxin (BTX) binding site of the sodium channel; experiment: Affinity to the batrachotoxin (BTX) binding site of the sodium channel; settings: rat cerebrocortex synaptosomes, [3H]-batrachotoxinin A20 α-benzoate 10 nM; test concentration not given
5-HT transporter = target: T1, 5-HT transporter (Rattus norvegicus, UniProt P31652); experiment: Inhibition of 5-HT uptake in synaptosomes; type: biochemical; settings: for inhibition at 1 µM: read-out: Uptake_5-HT, rat, 1 μM, % inhibition
T1 construct: from tissue; host or cells: rat brain synaptosomes (marrow/medulla and pons), P2 fraction
T1 sequence (P31652 whole entry): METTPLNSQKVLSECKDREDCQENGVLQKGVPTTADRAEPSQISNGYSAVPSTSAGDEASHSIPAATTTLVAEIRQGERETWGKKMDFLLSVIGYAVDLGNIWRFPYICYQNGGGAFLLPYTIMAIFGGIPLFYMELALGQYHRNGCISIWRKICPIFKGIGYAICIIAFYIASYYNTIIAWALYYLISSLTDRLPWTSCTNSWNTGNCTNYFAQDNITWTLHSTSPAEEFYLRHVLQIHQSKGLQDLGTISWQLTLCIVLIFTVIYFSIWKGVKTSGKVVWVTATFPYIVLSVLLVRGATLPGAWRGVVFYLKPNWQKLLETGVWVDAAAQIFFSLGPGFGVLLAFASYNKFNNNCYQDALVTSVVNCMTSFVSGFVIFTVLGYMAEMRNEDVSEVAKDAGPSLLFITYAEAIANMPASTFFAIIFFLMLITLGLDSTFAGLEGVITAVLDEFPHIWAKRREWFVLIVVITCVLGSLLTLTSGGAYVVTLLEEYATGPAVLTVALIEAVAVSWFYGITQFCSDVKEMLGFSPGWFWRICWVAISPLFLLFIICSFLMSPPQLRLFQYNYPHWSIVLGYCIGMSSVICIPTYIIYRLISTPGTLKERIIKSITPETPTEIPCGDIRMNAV

Row | inhibition at 1 µM (5-HT transporter) | SMILES | BTX Inhibition [1] | Uptake_5-HT, rat, 1 μM, % inhibition (5-HT transporter)
1 | – | CCCCOc1ccc(S(=O)(=O)N2CCC3(CC2)NCC(=O)N3Cc2ccccc2C#N)cc1 [Example 5, 2-[8-(4-Butoxy-benzolsulfonyl)-2-oxo-1,4,8-triazaspiro[4,5]dec-1-ylmethyl]-benzonitrile] | 59 | 30%
2 | – | CCC(C)(C)c1ccc(S(=O)(=O)N2CCC3(CC2)NCC(=O)N3Cc2ccccc2C#N)cc1 [Example 6, 2-{8-[4-(1,1-Dimethylpropyl)benzolesulfonyl]-2-oxo-1,4,8-triazaspiro[4,5]dec-1-ylmethyl}-benzonitrile] | 56 | 57%
3 | – | Cc1cc(C)c(S(=O)(=O)N2CCC3(CC2)NC(C(C)C)C(=O)N3Cc2ccccc2)c(C)c1 (centres unmarked) [Example 14, 1-Benzyl-3-isopropyl-8-(2,4,6-trimethylbenzolsulfonyl)-1,4,8-triazaspiro[4,5]decan-2-one] | 68 | 61%
4 | – | CCCCN1C(=O)C(CCSC)NC12CCN(S(=O)(=O)c1cccc(C)c1)CC2 (centres unmarked) [Example 18, 1-Butyl-3-(2-methylsulfanylethyl)-8-(toluol-3-sulfonyl)-1,4,8-triazaspiro[4,5]decan-2-one] | 32 | 68%
5 | – | CCCCN1C(=O)C(Cc2ccccc2)NC12CCN(S(=O)(=O)c1ccccc1C(F)(F)F)CC2 (centres unmarked) [Example 22, 3-Benzyl-1-butyl-8-(2-trifluoromethylbenzolsulfonyl)-1,4,8-triazaspiro[4,5]decan-2-one] | 38 | 66%
6 | – | CSCCC1NC2(CCN(S(=O)(=O)c3ccccc3C(F)(F)F)CC2)N(Cc2ccc(F)cc2)C1=O (centres unmarked) [Example 25, 1-(4-Fluorobenzyl)-3-(2-methylsulfanylethyl)-8-(2-trifluoromethylbenzolsulfonyl)-1,4,8-triazaspiro[4,5]decan-2-one] | 57 | 58%
7 | – | CSCCC1NC2(CCN(S(=O)(=O)c3cc(C)c(Cl)cc3C)CC2)N(Cc2ccc(F)cc2)C1=O (centres unmarked) [Example 26, 8-(4-Chloro-2,5-dimethylbenzolsulfonyl)-1-(4-fluorobenzyl)-3-(2-methylsulfanylethyl)-1,4,8-triazaspiro[4,5]decan-2-one] | 38 | 68%
8 | – | COc1ccc(S(=O)(=O)N2CCC3(CC2)NC(Cc2ccccc2)C(=O)N3Cc2ccccc2)cc1OC (centres unmarked) [Example 29, 1,3-Dibenzyl-8-(3,4-dimethoxy-benzolsulfonyl)-1,4,8-triazaspiro[4,5]decan-2-one] | 47 | 75%
9 | – | CCCCN1C(=O)C(Cc2ccccc2)NC12CCN(S(=O)(=O)c1ccc(CC)cc1)CC2 (centres unmarked) [Example 33, 3-Benzyl-1-butyl-8-(4-ethylbenzolsulfonyl)-1,4,8-triazaspiro[4,5]decan-2-one] | 54 | 67%
10 | – | O=C1C(Cc2ccccc2)NC2(CCN(S(=O)(=O)c3ccccc3F)CC2)N1Cc1ccccc1 (centres unmarked) [Example 37, 1,3-Dibenzyl-8-(2-fluorobenzolsulfonyl)-1,4,8-triazaspiro[4,5]decan-2-one] | 61 | 73%
11 | 40% | COC(=O)c1ccccc1S(=O)(=O)N1CCC2(CC1)NC(CCSC)C(=O)N2Cc1ccccc1C#N (centres unmarked) [Example 38, Methyl 2-[1-(2-cyanobenzyl)-3-(2-methylsulfanylethyl)-2-oxo-1,4,8-triazaspiro[4,5]decan-8-sulfonyl]-benzoate] | – | –
12 | – | CN1C(=O)C(Cc2ccccc2)NC12CCN(S(=O)(=O)c1cccc(Cl)c1)CC2 (centres unmarked) [Example 40, 3-Benzyl-8-(3-chlorobenzolsulfonyl)-1-methyl-1,4,8-triazaspiro[4,5]decan-2-one] | – | 57%
13 | – | CCC(C)(C)c1ccc(S(=O)(=O)N2CCC3(CC2)NC(CCSC)C(=O)N3Cc2ccccc2)cc1 (centres unmarked) [Example 41, 1-Benzyl-8-[4-(1,1-dimethylpropyl)benzolesulfonyl]-3-(2-methylsulfanylethyl)-1,4,8-triazaspiro[4,5]decan-2-one] | – | 56%
14 | – | CSCCC1NC2(CCN(S(=O)(=O)c3ccc(C)cc3)CC2)N(Cc2ccc(F)cc2)C1=O (centres unmarked) [Example 44, 1-(4-Fluorobenzyl)-3-(2-methylsulfanylethyl)-8-(toluol-4-sulfonyl)-1,4,8-triazaspiro[4,5]decan-2-one] | 42 | 42%
15 | – | Cc1ccc(S(=O)(=O)N2CCC3(CC2)NC(Cc2ccccc2)C(=O)N3Cc2ccccc2)cc1 (centres unmarked) [Example 45, 1,3-Dibenzyl-8-(toluol-4-sulfonyl)-1,4,8-triazaspiro[4,5]decan-2-one] | 37 | 74%
16 | – | CCOC(=O)CN1C(=O)C(Cc2ccccc2)NC12CCN(S(=O)(=O)c1cccs1)CC2 (centres unmarked) [Example 48] | 30 | 85%
17 | – | COC(=O)c1ccc(CN2C(=O)CNC23CCN(S(=O)(=O)Cc2ccccc2)CC3)cc1 [Example 51, Methyl 4-(2-Oxo-8-benzolmethansulfonyl-1,4,8-triazaspiro[4,5]dec-1-ylmethyl)benzoate] | 31 | 62%
18 | – | CC(C)C1NC2(CCN(S(=O)(=O)c3ccc([N+](=O)[O-])cc3)CC2)N(Cc2cccc(C#N)c2)C1=O (centres unmarked) [Example 52, 3-[3-Isopropyl-8-(4-nitrobenzolsulfonyl)-2-oxo-1,4,8-triazaspiro[4,5]dec-1-ylmethyl]-benzonitrile] | – | 53%
19 | 57% | CN(C)S(=O)(=O)N1CCC2(CC1)NCC(=O)N2Cc1ccccc1F [Example 55, 1-(2-Fluorobenzyl)-2-oxo-1,4,8-triazaspiro[4,5]decan-8-sulfonic acid dimethylamide] | – | –
20 | – | CCOC(=O)CN1C(=O)C(CCSC)NC12CCN(S(=O)(=O)Cc1ccccc1)CC2 (centres unmarked) [Example 57, Ethyl[3-(2-methylsulfanylethyl)-2-oxo-8-benzolmethansulfonyl-1,4,8-triazaspiro[4,5]dec-1-yl]-acetate] | 34 | 32%
21 | – | C=CCN1C(=O)C(CCSC)NC12CCN(S(=O)(=O)Cc1ccccc1)CC2 (centres unmarked) [Example 58, 1-Allyl-3-(2-methylsulfanylethyl)-8-benzolmethansulfonyl-1,4,8-triazaspiro[4,5]decan-2-one] | – | 56%
22 | – | Cc1cc(C)c(S(=O)(=O)N2CCC3(CC2)NCC(=O)N3Cc2cccc(C#N)c2)c(C)c1 [Example 59, 3-[2-Oxo-8-(2,4,6-trimethylbenzolsulfonyl)-1,4,8-triazaspiro[4,5]dec-1-ylmethyl]-benzonitrile] | 50 | 50%
23 | – | COC(=O)c1ccc(CN2C(=O)CNC23CCN(S(=O)(=O)c2c(C)cc(C)cc2C)CC3)cc1 [Example 60, Methyl-4-[2-oxo-8-(2,4,6-trimethylbenzolsulfonyl)-1,4,8-triazaspiro[4,5]dec-1-ylmethyl]-benzoate] | 59 | 65%
24 | 70% | CCCCS(=O)(=O)N1CCC2(CC1)NC(Cc1ccccc1)C(=O)N2CC(=O)OCC (centres unmarked) [Example 62, Ethyl[3-benzyl-8-(butan-1-sulfonyl)-2-oxo-1,4,8-triazaspiro[4,5]dec-1-yl]-acetate] | – | –
25 | 41% | CC(C)NC(=S)N1CCC2(CC1)NC(=O)C(Cc1ccccc1)N2 (centres unmarked) [Example 103, 2-Benzyl-3-oxo-1,4,8-triazaspiro[4,5]decan-8-thiocarboxylic acid isopropylamide] | – | –
26 | – | C=CCN1C(=O)C(C(C)C)NC12CCN(C(=S)Nc1ccc(F)cc1)CC2 (centres unmarked) [Example 125, 1-Allyl-3-isopropyl-2-oxo-1,4,8-triazaspiro[4,5]decan-8-thiocarboxylic acid (4-fluorobenzol)amide] | – | 34%
27 | 47% | CCOC(=O)CN1C(=O)C(Cc2ccccc2)NC12CCN(C(=S)NC(=O)OCC)CC2 (centres unmarked) [Example 144, Ethyl(3-benzyl-8-ethoxycarbonylaminocarbothioyl-2-oxo-1,4,8-triazaspiro[4,5]dec-1-yl)acetate] | – | –
28 | – | C=CCN1C(=O)C(C(C)C)NC12CCN(C(=S)Nc1c(F)c(F)c(F)c(F)c1F)CC2 (centres unmarked) [Example 149, 1-Allyl-3-isopropyl-2-oxo-1,4,8-triazaspiro[4,5]decan-8-thiocarboxylic acid pentafluorobenzolamide-amide] | – | 55%
29 | 32% | CSCCC1NC2(CCN(C(=S)NC(C)C)CC2)N(Cc2ccc(F)cc2)C1=O (centres unmarked) [Example 176, 1-(4-Fluorobenzyl)-3-(2-methylsulfanylethyl)-2-oxo-1,4,8-triazaspiro[4,5]decan-8-thiocarboxylic acid isopropylamide] | – | –
30 | – | CSCCC1NC2(CCN(C(=O)Nc3cccc(F)c3)CC2)N(Cc2ccccc2C#N)C1=O (centres unmarked) [Example 226, 1-(2-Cyanobenzyl)-3-(2-methylsulfanylethyl)-2-oxo-1,4,8-triazaspiro[4,5]decan-8-carboxylic acid (3-fluorobenzol)amide] | – | 55%

Row | SMILES | inhibition at 1 µM (5-HT transporter) | BTX Inhibition [1] | Uptake_5-HT, rat, 1 μM, % inhibition (5-HT transporter)
31 | COC(=O)c1ccccc1S(=O)(=O)N1CCC2(CC1)NC(CCSC)C(=O)N2Cc1ccc(F)cc1 (centres unmarked) [Example 23, Methyl 2-[1-(4-fluorobenzyl)-3-(2-methylsulfanylethyl)-2-oxo-1,4,8-triazaspiro[4,5]decan-8-sulfonyl]-benzoate] | 69% | 40 | –
32 | CC1(C)C2CCC1(CS(=O)(=O)N1CCC3(CC1)NCC(=O)N3Cc1ccccc1F)C(=O)C2 (centres unmarked) [Example 56, 8-(7,7-Dimethyl-2-oxobicyclo[2.2.1]hept-1-ylmethansulfonyl)-1-(2-fluorobenzyl)-1,4,8-triazaspiro[4,5]decan-2-one] | 60% | 32 | –
33 | CCOC(=O)CN1C(=O)C(Cc2ccccc2)NC12CCN(S(=O)(=O)c1ccc(Cl)s1)CC2 (centres unmarked) [Example 61, Ethyl[3-benzyl-8-(5-chlorothiophen-2-sulfonyl)-2-oxo-1,4,8-triazaspiro[4,5]dec-1-yl]-acetate] | 61% | 50 | –
